Test in all cases: NCI-60 cell line screen, 48 h
Experiment [1] relates to NCI-H226.
The subject of experiment [2] is OVCAR-3.
The test system of experiment [3] is IGROV-1.
In experiment [4] the test system is UO-31.
Experiment [5] concerns U-251.
Experiment [6] has as its system M14.
Experiment [7] has as its system SK-OV-3.
In experiment [8] the test system is HOP-92.
The test system of experiment [9] is SNB-75.
For experiment [10], the system named is NCI-H460.
Experiment [11] concerns LOX IMVI.
Experiment [12] relates to Malme-3M.
The subject of experiment [13] is HOP-62.
Experiment [14] concerns TK-10.
In experiment [15] the test system is MOLT-4.
Experiment [16] deals with ACHN.
Experiment [17] has as its system RXF 393.
Experiment [18] has as its system SF-539.
Experiment [19] relates to SN12C.
Experiment [20] has as its system HCC 2998.

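48-hour exposure; five concentrations; linearly interpolated endpoints. At the GI50, growth is halved.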 Calls of active or inactive are those of the source. Cut-off read from the data, not from the text of the source: active = GI50 up to about 1.1 µM and inactive = higher.

Consider `CC(O)C1(CNc2cc(Cl)nc(N)n2)CCCC1` (stereo not given), for which the GI50 in experiment [1], in [2], in experiment [3], in experiment [4], in experiment [5] and in [6] was > 100 µM (inactive) throughout. The GI50 in experiment [7] was > 100 µM (inactive); in [8], 98.9 µM (inactive); in experiment [9], 71 µM (inactive); in experiment [10], > 100 µM (inactive); in experiment [11] it was > 100 µM (inactive); in [12], > 100 µM (inactive). Also, the GI50 in experiment [13], in [14], in [15], in experiment [16], in experiment [17] and in [18] was > 100 µM (inactive) throughout. Also, the GI50 is > 100 µM (inactive) in experiment [19] and 23.4 µM (inactive) in experiment [20].

Turning to `CN(C)CCN(C)c1ccc2c(=O)n(CCN(C)C)c(=O)n3c4ccccc4c(=O)c1c23`, the GI50 in experiment [1] was 0.29 µM (active); in experiment [2] it was 1.89 µM (inactive); in experiment [3], 0.426 µM (active); in experiment [4], 0.516 µM (active); in experiment [5] it was 0.489 µM (active); in [6], 0.986 µM (active). The GI50 in experiment [7] is 1.55 µM (inactive); in experiment [8], 0.145 µM (active); in experiment [9], 0.316 µM (active); in [10], 0.029 µM (active); in [11], 0.35 µM (active); in experiment [12], 1.23 µM (inactive). The GI50 in experiment [13] is 0.0897 µM (active); in experiment [14], 1.51 µM (inactive); in experiment [15], 0.0167 µM (active); in experiment [16] it was 0.0436 µM (active); in experiment [17], 2.81 µM (inactive); in experiment [18] it was 0.324 µM (active). The GI50 was 0.0964 µM (active) in experiment [19] and 0.454 µM (active) in experiment [20].

In the case of `COc1cc(C2c3cc4c(cc3OC(NCCc3ccccc3)C2C)OCO4)cc(OC)c1OC` (stereo not given), the GI50 in [1] is 0.871 µM (active); in experiment [2], 0.378 µM (active); in experiment [3] it was 0.367 µM (active); in [4] it was 0.457 µM (active); in experiment [5] it was 0.348 µM (active); in experiment [6], 0.356 µM (active). Besides, the GI50 in experiment [7] was 0.397 µM (active); in experiment [8] it was 4.67 µM (inactive); in [9], 0.198 µM (active); in [10], 0.418 µM (active); in experiment [11], 0.497 µM (active); in [12], 0.231 µM (active). In addition, the GI50 is 0.614 µM (active) in experiment [13]; 26.5 µM (inactive) in [14]; 0.515 µM (active) in experiment [15]; 1.36 µM (inactive) in experiment [16]; 0.203 µM (active) in experiment [17]; 0.286 µM (active) in [18]. The results for the GI50 in [19] and in experiment [20] were 0.698 µM (active) and 0.282 µM (active), respectively.

As for `NCC(=O)NC(CO)C(=O)O` (stereo not given), the GI50 in experiment [1], in [2], in experiment [3], in experiment [4], in experiment [5] and in [6] was > 100 µM (inactive) each time. The GI50 in experiment [7], in [8], in experiment [9], in [10], in experiment [11] and in experiment [12] was > 100 µM (inactive) each time. In addition, the GI50 in experiment [13] is > 100 µM (inactive); in [14], > 100 µM (inactive); in experiment [15], > 27.5 µM (inactive); in [16], > 100 µM (inactive); in [17] it was > 100 µM (inactive); in [18] it was > 100 µM (inactive). The GI50 in experiment [19] and in [20] was > 100 µM (inactive) each time.

Regarding `NNC(=S)N/N=C(/C(=O)Nc1cc(Cl)ccc1Cl)C1C(=O)Nc2ccccc2[S+]1[O-]` (stereo not given), the GI50 in [1], in experiment [2], in experiment [3], in [4], in experiment [5] and in [6] was > 100 µM (inactive) throughout. The GI50 in [7], in experiment [8], in experiment [9], in experiment [10], in [11] and in experiment [12] was > 100 µM (inactive) in each case. The GI50 in experiment [13] is > 100 µM (inactive); in experiment [14], > 100 µM (inactive); in experiment [15], 78.9 µM (inactive); in [16], > 100 µM (inactive); in experiment [17], > 100 µM (inactive); in experiment [18] it was > 100 µM (inactive). The GI50 in [19] and in [20] was > 100 µM (inactive) each time.

On to `COc1ccc(C2=C3c4cc(OC)c(OC)cc4CCN3C(=S)SS2)cc1OC`, for which the GI50 in experiment [1] was > 100 µM (inactive); in experiment [2], > 100 µM (inactive); in experiment [3], > 100 µM (inactive); in [4], > 100 µM (inactive); in experiment [5] it was 61.1 µM (inactive); in [6], 98.2 µM (inactive). For the same compound, the GI50 in experiment [7] is > 100 µM (inactive); in experiment [8], 32.1 µM (inactive); in experiment [9], 25.1 µM (inactive); in experiment [10], > 100 µM (inactive); in experiment [11], 40.8 µM (inactive); in experiment [12], 24 µM (inactive). The GI50 in experiment [13] is > 100 µM (inactive); in experiment [14], > 100 µM (inactive); in experiment [15], > 100 µM (inactive); in [16], 54.8 µM (inactive); in experiment [17] it was 92.3 µM (inactive); in experiment [18] it was > 100 µM (inactive). For the same compound, the GI50 in experiment [19] is 64.7 µM (inactive); in experiment [20] it was > 100 µM (inactive).

As to `NC(=O)c1ccc(S(=O)(=NS(=O)(=O)c2ccccc2)c2ccc(C(N)=O)cc2)cc1`, the GI50 in experiment [1], in experiment [2], in experiment [3], in experiment [4], in experiment [5] and in [6] was > 100 µM (inactive) in each case. Further, the GI50 in experiment [7], in experiment [8], in experiment [9], in experiment [10], in [11] and in experiment [12] was > 100 µM (inactive) in each case. The GI50 in experiment [13], in experiment [14], in [15], in experiment [16], in experiment [17] and in experiment [18] was > 100 µM (inactive) throughout. The GI50 in experiment [19] and in [20] was > 100 µM (inactive) in each case.

For the compound `CCCCCCCC/C=C\CCCCCCC/C=C1/C[C@](/C=C/C(=O)OC)(CO)OC1=O`, the GI50 in experiment [1] was 5.14 µM (inactive); in experiment [2] it was 11.6 µM (inactive); in experiment [3] it was 11.5 µM (inactive); in [4], 1.77 µM (inactive); in experiment [5], 6.03 µM (inactive); in experiment [6], 2.05 µM (inactive). The GI50 was 10.9 µM (inactive) in experiment [7]; 2.4 µM (inactive) in [8]; 7.66 µM (inactive) in [9]; 2.15 µM (inactive) in experiment [10]; 1.6 µM (inactive) in experiment [11]; 2.15 µM (inactive) in experiment [12]. The GI50 is 3.44 µM (inactive) in [13]; 2.68 µM (inactive) in experiment [14]; 1.3 µM (inactive) in experiment [15]; 3.11 µM (inactive) in experiment [16]; 14.2 µM (inactive) in experiment [17]; 1.01 µM (active) in experiment [18]. For the same compound, the GI50 is 2.86 µM (inactive) in experiment [19] and 4.18 µM (inactive) in [20].

For the compound `CC(=O)/C=C/c1ccc(C)cc1`, the GI50 in [1], in [2], in [3], in [4], in experiment [5] and in experiment [6] was > 100 µM (inactive) each time. Moreover, the GI50 in experiment [7], in [8], in experiment [9], in experiment [10], in experiment [11] and in experiment [12] was > 100 µM (inactive) throughout. In addition, the GI50 in experiment [13], in [14], in experiment [15], in experiment [16], in [17] and in [18] was > 100 µM (inactive) in each case. The GI50 in experiment [19] and in experiment [20] was > 100 µM (inactive) throughout.

As to `C/C=C/C=N/N(C(=O)c1cc([N+](=O)[O-])cc([N+](=O)[O-])c1)C1=NN=C(c2ccccc2)C(c2ccccc2)N1` (stereo not given), the GI50 is > 100 µM (inactive) in experiment [1]; 23.4 µM (inactive) in experiment [2]; > 100 µM (inactive) in [3]; 43.9 µM (inactive) in experiment [4]; > 100 µM (inactive) in [5]; 33.3 µM (inactive) in experiment [6]. The GI50 in experiment [7] was > 100 µM (inactive); in [8], 11.1 µM (inactive); in [9], > 100 µM (inactive); in experiment [10], 91.2 µM (inactive); in experiment [11], 78.5 µM (inactive); in experiment [12] it was 25.6 µM (inactive). Also, the GI50 was > 100 µM (inactive) in experiment [13]; > 100 µM (inactive) in [14]; 25.7 µM (inactive) in experiment [15]; 97.5 µM (inactive) in [16]; > 100 µM (inactive) in [17]; 42.5 µM (inactive) in [18]. Also, the values for the GI50 in experiment [19] and in experiment [20] were 57.9 µM (inactive) and 34 µM (inactive), respectively.

For the origin of these results see ChEMBL document CHEMBL1201862, “PubChem BioAssay data set” (2004).
